Read-outs that look alike come from different tables or passages of the source.
Key:
Assay type in all cases: cell-based
[1] = test system: MV-induced blebbing of HeLa cells; details: microscopy
[2] = test system: vaccinia virus mature virions (EGFP-MV)
[3] = test system: vaccinia virus mature virions (mYFP-MV)
[4] = test system: vaccinia virus mature virions
[5] = test system: vaccinia virus mature virions (mYFP-MV); remark: listed apart in the source
[6] = test system: vaccinia virus mature virions (MV entry)

In the case of `CCN(c1nc(N)c(C(=O)N=C(N)N)nc1Cl)C(C)C` [EIPA, 5-N-ethyl-N-isopropyl-amiloride], the MV-induced bleb formation [1] is reported as “inhibited bleb-formation”, the “inhibition of viral infection” value [2] is reported as 90% and the “internalization of MV into FITC-dextran positive vacuoles” value [3] is reported as “prevented internalization”.
phosphatidylserine [PS] was tested, and the “fraction of original infectivity and plaque formation rescued” value [4] was 90%.
With ANX5 the infectivity [2] was “no effect”, the “inhibition of infection by masking of viral PS” value [2] was 95% and the “MV binding to cells” value [5] was “without affecting MV binding”. The viral binding [5] was “no effect”.
With `O=c1c(-c2ccc(O)cc2)coc2cc(O)cc(O)c12` [genistein] the “inhibition of viral infection” value [2] was “up to 82%”.
`COC[C@H]1OC(=O)c2coc3c2[C@@]1(C)C1=C(C3=O)[C@@H]2CCC(=O)[C@@]2(C)C[C@H]1OC(C)=O` [wortmannin] was tested, and the “inhibition of viral infection” value [2] was “up to 63%”.
With `Cc1ccc2c(c1)C(=O)C1(O)CCN(c3ccccc3)C1=N2` (centres unmarked) [Blebbistatin] the MV-induced bleb formation [1] was “prevented formation of the blebs”, the MV-induced bleb formation ([1]; listed as blebbistatin) was “inhibited bleb-formation” and the “inhibition of viral infection” value [2] was 62%.
With `O=C(Nc1cccc(Nc2cc(Nc3cccc(C(F)(F)F)c3)ncn2)c1)C1CC1` [EGFR inhibitor 324674] the MV entry [6] was “effectively blocks MV entry”.

Source: patent US20100272706A1, “ANTIVIRALS” (priority 2007, published 2010)
